Measured values as given in US12371454B2, “Cyclic peptide compound having Kras inhibitory action” (priority 2019, dated 2025).
Starred links: 1 amine or outer side, 2 acyl side, 3 side chain; linkers in the order of their positions; H or OH if unused. Positions of bridges follow the written chain, without caps; N, C: chain ends. Non-standard residues stand in square brackets, D forms with d. Residues, ends and D or L forms follow the SMILES beside them. *: point of attachment. hPhe(3-Cl-4-CF3) = N[C@@H](CCc1ccc(C(F)(F)F)c(Cl)c1)C(=O)O; hPhe(3-F,4-CF3) = N[C@@H](CCc1ccc(C(F)(F)F)c(F)c1)C(=O)O; NMePhe(4-CF3) = CN[C@@H](Cc1ccc(C(F)(F)F)cc1)C(=O)O; NEtAsp = CCN([C@@H](CC(=O)[*:3])C(=O)[*:2])[*:1]; 3Oxa8azabicyclo(3.2.1)octane = C1CC2COCC1N2*; NMePhe(4-Cl) = CN[C@@H](Cc1ccc(Cl)cc1)C(=O)O; NMePhe(4-F) = CN[C@@H](Cc1ccc(F)cc1)C(=O)O; NMedβ3hAla = C[C@H](CC(=O)[*:2])N(C)[*:1]; NMeGly(cPent) = CN[C@H](C(=O)O)C1CCCC1; Pro(4,4-F2) = O=C(O)[C@@H]1CC(F)(F)CN1; NMeGly(cBu) = CN[C@H](C(=O)O)C1CCC1; NMeCha = CN[C@@H](CC1CCCCC1)C(=O)O; NMeI = CC[C@H](C)[C@H](NC)C(=O)O; NMeD = CN[C@@H](CC(=O)O)C(=O)O; NMeL = CN[C@@H](CC(C)C)C(=O)O; NMeV = CN[C@H](C(=O)O)C(C)C; d(β3hA) = C[C@@H](N)CC(=O)O; NMeS = CN[C@@H](CO)C(=O)O; NMeA = CN[C@@H](C)C(=O)O; Piperidide = C1CCN(*)CC1; dNMeA = CN[C@H](C)C(=O)O; Ac5c = NC1(C(=O)O)CCCC1; Aze = O=C(O)[C@@H]1CCN1; Sar = CNCC(=O)O; Propyl = CCC*

The compounds below were run on Human pancreatic cancer cell line AsPC-1 (assay: Measurement of AsPC-1 cell growth inhibition (AsPC-1 CGI)). Settings: 96 h.
Assay type: cell-based
Method in brief: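 AsPC-1 cells in 15% FBS RPMI-1640 were exposed to test compound for 96 hours at 37° C, with CellTiter-Glo as endpoint.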

Row | Compound | IC50 [nM]
1 | CCCOC[C@H]1C(=O)N(C)CC(=O)N[C@@H](CCc2ccc(C(F)(F)F)c(F)c2)C(=O)N2CCC[C@H]2C(=O)NC2(CCCC2)C(=O)N(C)[C@@H](C2CCCC2)C(=O)N(C)[C@H](C(=O)N2C3CCC2COC3)CC(=O)N(C)[C@@H](CC(C)C)C(=O)N[C@@H]([C@@H](C)CC)C(=O)N(C)[C@@H](C)C(=O)N2CC[C@H]2C(=O)N1C [Compound 1030] ([NMeL]I[NMeA][Aze][NMeS](Propyl)[Sar][hPhe(3-F,4-CF3)]P[Ac5c][NMeGly(cPent)][NMeD]-{3Oxa8azabicyclo(3.2.1)octane}; lactam N-11) | 20 to 50
2 | CC[C@H](C)[C@@H]1NC(=O)[C@H](C2CCC2)N(C)C(=O)C[C@@H](C(=O)N2CCCCC2)N(C)C(=O)[C@H](C(C)C)N(C)C(=O)C2(CCCC2)NC(=O)[C@@H]2CCCN2C(=O)[C@H](CCc2ccc(C(F)(F)F)c(Cl)c2)NC(=O)CN(C)C(=O)[C@H](CC2CCCCC2)N(C)C(=O)[C@@H]2CCN2C(=O)[C@H](C)N(C)C1=O [Compound 1036] ([NMeGly(cBu)]I[NMeA][Aze][NMeCha][Sar][hPhe(3-Cl-4-CF3)]P[Ac5c][NMeV][NMeD]-Piperidide; lactam N-11) | 100 to 500
3 | CC[C@H](C)[C@@H]1NC(=O)[C@H](CC(C)C)N(C)C(=O)C[C@@H](C(=O)N2CCCCC2)N(C)C(=O)[C@H](C(C)C)N(C)C(=O)C2(CCCC2)NC(=O)[C@@H]2CCCN2C(=O)[C@H](CCc2ccc(C(F)(F)F)c(F)c2)NC(=O)CN(C)C(=O)[C@H](CC2CCCCC2)N(C)C(=O)[C@@H]2CCN2C(=O)[C@H](C)N(C)C1=O [Compound 1040] ([NMeL]I[NMeA][Aze][NMeCha][Sar][hPhe(3-F,4-CF3)]P[Ac5c][NMeV][NMeD]-Piperidide; lactam N-11) | 100 to 500
4 | CC[C@H](C)[C@@H]1NC(=O)[C@H](CC(C)C)N(C)C(=O)C[C@@H](C)N(C)C(=O)[C@H](C2CCCC2)N(C)C(=O)C2(CCCC2)NC(=O)[C@@H]2CCCN2C(=O)[C@H](CCc2ccc(C(F)(F)F)c(Cl)c2)NC(=O)CN(C)C(=O)[C@H](C2CCCC2)N(C)C(=O)[C@@H]2CCN2C(=O)[C@H](C)N(C)C1=O [Compound 1046] (cyclo([Ac5c][NMeGly(cPent)][NMedβ3hAla][NMeL]I[NMeA][Aze][NMeGly(cPent)][Sar][hPhe(3-Cl-4-CF3)]P)) | 20 to 50
5 | CC[C@H](C)[C@@H]1NC(=O)[C@H](CC(C)C)N(C)C(=O)C[C@@H](C(=O)N2CCCCC2)N(CC)C(=O)[C@H](C2CCCC2)N(C)C(=O)C2(CCCC2)NC(=O)[C@@H]2CCCN2C(=O)[C@H](CCc2ccc(C(F)(F)F)c(Cl)c2)NC(=O)CN(C)C(=O)[C@H](C2CCC2)N(C)C(=O)[C@@H]2CCN2C(=O)[C@H](C)N(C)C1=O [Compound 1047] ([NMeL]I[NMeA][Aze][NMeGly(cBu)][Sar][hPhe(3-Cl-4-CF3)]P[Ac5c][NMeGly(cPent)][NEtAsp]-Piperidide; lactam N-11) | 50 to 100
6 | CC[C@H](C)[C@@H]1NC(=O)[C@H](CC(C)C)N(C)C(=O)C[C@@H](C(=O)N2CCCCC2)N(C)C(=O)[C@H]([C@@H](C)CC)N(C)C(=O)C2(CCCC2)NC(=O)[C@@H]2CCCN2C(=O)[C@H](CCc2ccc(C(F)(F)F)c(Cl)c2)NC(=O)CN(C)C(=O)[C@H](Cc2ccc(F)cc2)N(C)C(=O)[C@@H]2CCN2C(=O)[C@H](C)N(C)C1=O [Compound 1060] ([NMeL]I[NMeA][Aze][NMePhe(4-F)][Sar][hPhe(3-Cl-4-CF3)]P[Ac5c][NMeI][NMeD]-Piperidide; lactam N-11) | 20 to 50
7 | CC[C@H](C)[C@@H]1NC(=O)[C@H](CC(C)C)N(C)C(=O)C[C@@H](C)N(C)C(=O)[C@H](C2CCCC2)N(C)C(=O)C2(CCCC2)NC(=O)[C@@H]2CC(F)(F)CN2C(=O)[C@H](CCc2ccc(C(F)(F)F)c(Cl)c2)NC(=O)CN(C)C(=O)[C@H](Cc2ccc(C(F)(F)F)cc2)N(C)C(=O)[C@@H]2CCN2C(=O)[C@H](C)N(C)C1=O [Compound 1062] (cyclo([Ac5c][NMeGly(cPent)][NMedβ3hAla][NMeL]I[NMeA][Aze][NMePhe(4-CF3)][Sar][hPhe(3-Cl-4-CF3)][Pro(4,4-F2)])) | 20 to 50
8 | CC[C@H](C)[C@@H]1NC(=O)[C@H](C)N(C)C(=O)C[C@@H](C)NC(=O)[C@H](C2CCCC2)N(C)C(=O)C2(CCCC2)NC(=O)[C@@H]2CCCN2C(=O)[C@H](CCc2ccc(C(F)(F)F)c(Cl)c2)NC(=O)[C@@H](C)N(C)C(=O)[C@H](C(C)C)N(C)C(=O)[C@@H]2CCN2C(=O)[C@H](C)N(C)C1=O [Compound 1066] (cyclo([Ac5c][NMeGly(cPent)][d(β3hA)][NMeA]I[NMeA][Aze][NMeV][dNMeA][hPhe(3-Cl-4-CF3)]P)) | 100 to 500
9 | CC[C@H](C)[C@@H]1NC(=O)[C@H](C(C)C)N(C)C(=O)C[C@@H](C)NC(=O)[C@H](C(C)C)N(C)C(=O)C2(CCCC2)NC(=O)[C@H](CC(C)C)N(C)C(=O)[C@H](CCc2ccc(C(F)(F)F)c(Cl)c2)NC(=O)CN(C)C(=O)[C@H](Cc2ccc(Cl)cc2)N(C)C(=O)CN(C)C(=O)CN(C)C1=O [Compound 1069] (cyclo([Ac5c][NMeV][d(β3hA)][NMeV]I[Sar][Sar][NMePhe(4-Cl)][Sar][hPhe(3-Cl-4-CF3)][NMeL])) | 100 to 500
